In patent US4505898A, “Derivatives of acetylsalicylic acid and substituted phenylacetic acids and compositions containing them” (priority 1983, dated 1985):

Assays:
[1] = test system: carrageenin-induced paw oedema; test: inhibition of experimentally-induced (carrageenin) paw oedema in rats; type: in vivo; conditions: rats fasted 18 hours; compound in aqueous 1% tragacanth, 25 ml/kg, 45 min before subplantar 0.1 ml 1% carrageenin; dose not given
Description: For this purpose, the well known test for the inhibition of experimentally-induced paw oedema in rats was used. The test was carried out as follows.
The rats are fasted 18 hours prior to dosing, but water is made available to them. Test compounds are then administered in aqueous 1% tragacanth at a dose volume of 25 ml/kg body weight. One group of rats is given vehicle only at the same dose volume. Forty five minutes later, all rats are given a subplantar injection of 0.1 ml of a 1% solution of carrageenin in 0.9% saline in the left hind paw. The volume of this paw is measured before and after the carrageenin injection using a volume differential meter designed by Ugo Basile.
Anti-inflammatory activity is measured as the percentage inhibition of paw oedema in the drug treated animals compared to the controls.

[2] = background statement, no test described; cited from earlier work

Row | SMILES | Anti-inflammatory activity (percentage inhibition of paw oedema compared to controls) [1] [%] | anti-inflammatory activity compared with Alclofenac [2]
1 | C=CCOc1ccc(CC(=O)NC(C)C(=O)OC)cc1Cl (racemic) [Compound 2, 4-allyloxy-3-chloro-phenylacetyl-(DL)-alanine methyl ester] | 23.1 | –
2 | CCCOc1ccc(CC(=O)O)cc1Cl [4-n-propoxy-3-chloro-phenylacetic acid] | – | much reduced anti-inflammatory activity as compared with Alclofenac
3 | C=CCOc1ccc(CC(=O)O)cc1Cl [Compound 1, 4-allyloxy-3-chloro-phenylacetic acid, reference compound] | 36.0 | –
4 | C=CCOc1ccc(CC(=O)NCC(=O)O)cc1Cl [Compound 3, 4-allyloxy-3-chloro-phenylacetyl-glycine] | 34.6 | –
5 | CCCOc1ccc(CC(=O)NCC(=O)O)cc1Cl [Compound 4, 4-n-propoxy-3-chloro-phenylacetyl-glycine] | 35.2 | –
